According to US12269825B2, “Organic compounds” (INTRA-CELLULAR THERAPIES, INC., priority 2014, dated 2025):

Assays:
[1] = Human plasma levels of Compounds Q through T after oral dosing with the Compound of Formula Q; format: in vivo; details: day 8 after 7 day dosing (120 mg, 4 doses/day) with the Compound of Formula Q
Procedure: (§1) In addition, the in-vivo metabolism of the Compound of Formula Q is studied after oral administration to rats, dogs and humans. Plasma levels after administration are determined in all three species for the Compounds of Formula Q through T. The results of the studies indicate that metabolism of the Compound of Formula Q is rapid, and that the N-demethyl compounds are highly polar and excreted rapidly. Results of human plasma studies on day 8 after 7 day dosing (120 mg, 4 doses/day) with the Compound of Formula Q are shown below: […]

ketone reductase = assay: In-vitro metabolism using subcellular fractions and isolated hepatocytes: ketone reduction; format: in vitro ADME; details: forms Compounds of Formula S and T, respectively
Source text: (§2) The in-vitro metabolism of the Compound of the Formula Q and its metabolites is studied using subcellular fractions and isolated hepatocytes. […] These two reductions are both catalyzed in the reverse direction (oxidation) by CYP 3A4.

[2] = In-vivo metabolism after oral administration; details: oral administration to rats, dogs and humans
Procedure: as §1

CYP 3A4 = target: T1, CYP 3A4 (Homo sapiens, UniProt P08684); assay: In-vitro metabolism using subcellular fractions and isolated hepatocytes: N-demethylation; format: in vitro ADME
T1 construct: from tissue
T1 sequence (P08684 whole entry, species assumed): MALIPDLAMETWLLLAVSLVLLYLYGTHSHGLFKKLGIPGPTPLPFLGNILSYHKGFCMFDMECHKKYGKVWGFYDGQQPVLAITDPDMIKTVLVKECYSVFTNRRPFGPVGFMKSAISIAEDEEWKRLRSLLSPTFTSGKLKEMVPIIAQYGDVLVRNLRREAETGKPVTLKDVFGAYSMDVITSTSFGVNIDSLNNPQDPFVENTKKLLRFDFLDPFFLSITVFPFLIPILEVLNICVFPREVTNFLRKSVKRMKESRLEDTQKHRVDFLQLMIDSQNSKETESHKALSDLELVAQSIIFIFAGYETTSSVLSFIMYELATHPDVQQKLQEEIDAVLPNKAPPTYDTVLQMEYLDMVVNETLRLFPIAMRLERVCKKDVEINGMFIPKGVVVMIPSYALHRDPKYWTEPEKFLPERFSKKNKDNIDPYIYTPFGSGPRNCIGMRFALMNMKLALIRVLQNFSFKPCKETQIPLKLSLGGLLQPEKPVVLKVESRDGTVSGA
Source text: as §2

| Structure (SMILES) | AUC [1] [ng·h/mL] | Cmax [1] [ng/mL] | Tmax [1] [h] | metabolic route: ketone reduction (ketone reductase) | rate of metabolism in vivo [2] | metabolic route: N-demethylation (CYP 3A4) |
| --- | --- | --- | --- | --- | --- | --- |
| OC(CCCN1CC[C@H]2[C@@H](C1)c1cccc3c1N2CCN3)c1ccc(F)cc1 (stereo partly drawn) [Compound T] | 517 | 38 | 6 | – | – | – |
| CN1CCN2c3c(cccc31)[C@@H]1CN(CCCC(O)c3ccc(F)cc3)CC[C@@H]12 (stereo partly drawn) [Compound S] | 906 | 79 | 3.5 | – | – | – |
| CN1CCN2c3c(cccc31)[C@@H]1CN(CCCC(=O)c3ccc(F)cc3)CC[C@@H]12 [Compound Q, 4-((6bR,10aS)-3-methyl-2,3,6b,9,10,10a-hexahydro-1H-pyrido[3′,4′:4,5]pyrrolo[1,2,3-de]quinoxalin-8(7H)-yl)-1-(4-fluorophenyl)-1-butanone] | 347 | 78 | 2.5 | undergo ketone reduction via the enzyme ketone reductase | rapid | N-demethylated to the Compound of Formula R via the P450 cytochrome oxidase isoform 3A4 (CYP 3A4) |
| O=C(CCCN1CC[C@H]2[C@@H](C1)c1cccc3c1N2CCN3)c1ccc(F)cc1 [Compound R] | 170 | 37 | 2.5 | – | – | – |
